The values that follow are results of earlier work, collected in patent publication EP0530832A1, “Method for processing a silver halide color photographic light-sensitive material” (KONICA CORPORATION, priority 1991, dated 1993).

For this data set, the system named is rats. The note with it: rats in an environment containing 15 ppm of formalin.

Each structure is given as a SMILES string.

Regarding `C=O` [formalin], the nasal cancers result is given as “developed nasal cancers”.
